System: MCF7 breast cancer cells

## O=P1(N(CCCl)CCCl)NCCCO1 (stereo not shown) [cyclophosphamide]
  number of dead cells and ratio of dead to live cells: significant increase in the number of dead cells

Source: patent US7846747B2, “Biocatalytic solgel microarrays” (Rensselaer Polytechnic Institute, priority 2001, dated 2010)
